Data as given in patent publication EP0584797A2, “Novel cephalosporin compounds and processes for the preparation thereof” (LUCKY LTD., priority 1992, dated 1994).
In brackets after ≈: the same amount, converted by molar mass.

Tests used:
Test in all cases: minimal inhibitory concentration, two-fold agar dilution
Format in all cases: cell-based
[1] = tested on: Acinetobacter calcoaceticus ATCC 15437; settings: ATCC15437, Muller-Hinton agar, 37°C, 20 hours, read-out: MIC values against the standard strains
How it was run: (§1)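 Compounds were serially diluted two-fold into Mueller-Hinton agar, and each plate was spot-inoculated with the test strain at 10⁷ CFU per ml. Plates were incubated at 37°C for 20 hours before MIC values were read.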

[2] = tested on: Bacillus cereus ATCC 11778; settings: ATCC11778, Muller-Hinton agar, 37°C, 20 hours, read-out: MIC values against the standard strains
How it was run: as §1

[3] = tested on: Bacillus megaterium ATCC 9885; settings: Priestia megaterium, ATCC9885; Muller-Hinton agar; 37°C; 20 hours; read-out: MIC values against the standard strains
How it was run: as §1

[4] = tested on: Citrobacter freundii ATCC 8090; settings: ATCC8090, Muller-Hinton agar, 37°C, 20 hours, read-out: MIC values against the standard strains
How it was run: as §1

[5] = tested on: Enterobacter aerogenes ATCC 29751; settings: Klebsiella aerogenes, ATCC29751; Muller-Hinton agar; 37°C; 20 hours; read-out: MIC values against the standard strains
How it was run: as §1

[6] = tested on: Enterobacter cloacae ATCC 27508; settings: ATCC27508, Muller-Hinton agar, 37°C, 20 hours, read-out: MIC values against the standard strains
How it was run: as §1

[7] = tested on: Escherichia coli ATCC 10536; settings: ATCC10536, Muller-Hinton agar, 37°C, 20 hours, read-out: MIC values against the standard strains
How it was run: as §1

[8] = tested on: Escherichia coli ATCC 25922; settings: ATCC25922, Muller-Hinton agar, 37°C, 20 hours, read-out: MIC values against the standard strains
How it was run: as §1

[9] = tested on: Klebsiella pneumoniae ATCC 10031; settings: ATCC10031, Muller-Hinton agar, 37°C, 20 hours, read-out: MIC values against the standard strains
How it was run: as §1

[10] = tested on: Micrococcus luteus ATCC 9341; settings: ATCC9341, Muller-Hinton agar, 37°C, 20 hours, read-out: MIC values against the standard strains
How it was run: as §1

[11] = tested on: Morganella morganii ATCC 8076h; settings: ATCC8076H, Muller-Hinton agar, 37°C, 20 hours, read-out: MIC values against the standard strains
How it was run: as §1

[12] = tested on: Proteus mirabilis ATCC 25933; settings: ATCC25933, Muller-Hinton agar, 37°C, 20 hours, read-out: MIC values against the standard strains
How it was run: as §1

[13] = tested on: Proteus vulgaris ATCC 6059; settings: ATCC6059, Muller-Hinton agar, 37°C, 20 hours, read-out: MIC values against the standard strains
How it was run: as §1

[14] = tested on: Providencia rettgeri ATCC 9250; settings: ATCC9250, Muller-Hinton agar, 37°C, 20 hours, read-out: MIC values against the standard strains
How it was run: as §1

[15] = tested on: Pseudomonas aeruginosa ATCC 10145; settings: ATCC10145, Muller-Hinton agar, 37°C, 20 hours, read-out: MIC values against the standard strains
How it was run: as §1

[16] = tested on: Pseudomonas aeruginosa ATCC 25619; settings: ATCC25619, Muller-Hinton agar, 37°C, 20 hours, read-out: MIC values against the standard strains
How it was run: as §1

[17] = tested on: Pseudomonas aeruginosa ATCC 27853; settings: ATCC27853, Muller-Hinton agar, 37°C, 20 hours, read-out: MIC values against the standard strains
How it was run: as §1

[18] = tested on: Salmonella typhimurium ATCC 14028; settings: Salmonella enterica; Muller-Hinton agar; 37°C; 20 hours; read-out: MIC values against the standard strains
How it was run: as §1

[19] = tested on: Serratia marcescens ATCC 27117; settings: ATCC27117, Muller-Hinton agar, 37°C, 20 hours, read-out: MIC values against the standard strains
How it was run: as §1

[20] = tested on: Shigella flexneri ATCC 11836; settings: ATCC11836, Muller-Hinton agar, 37°C, 20 hours, read-out: MIC values against the standard strains
How it was run: as §1

[21] = tested on: Shigella sonnei ATCC 11060; settings: ATCC11060, Muller-Hinton agar, 37°C, 20 hours, read-out: MIC values against the standard strains
How it was run: as §1

[22] = tested on: Staphylococcus aureus ATCC 10537; settings: ATCC10537, Muller-Hinton agar, 37°C, 20 hours, read-out: MIC values against the standard strains
How it was run: as §1

[23] = tested on: Staphylococcus aureus ATCC 6538p; settings: ATCC6538P, Muller-Hinton agar, 37°C, 20 hours, read-out: MIC values against the standard strains
How it was run: as §1

[24] = tested on: Staphylococcus epidermidis ATCC 12228; settings: ATCC12228, Muller-Hinton agar, 37°C, 20 hours, read-out: MIC values against the standard strains
How it was run: as §1

[25] = tested on: Streptococcus faecalis ATCC 29212; settings: Enterococcus faecalis, ATCC29212; Muller-Hinton agar; 37°C; 20 hours; read-out: MIC values against the standard strains
How it was run: as §1

SMILES | MIC [1] [µg/mL] | MIC [2] [µg/mL] | MIC [3] [µg/mL] | MIC [4] [µg/mL] | MIC [5] [µg/mL] | MIC [6] [µg/mL] | MIC [7] [µg/mL] | MIC [8] [µg/mL] | MIC [9] [µg/mL] | MIC [10] [µg/mL] | MIC [11] [µg/mL] | MIC [12] [µg/mL] | MIC [13] [µg/mL] | MIC [14] [µg/mL] | MIC [15] [µg/mL] | MIC [16] [µg/mL] | MIC [17] [µg/mL] | MIC [18] [µg/mL] | MIC [19] [µg/mL] | MIC [20] [µg/mL] | also measured
CCO/N=C(\C(=O)N[C@@H]1C(=O)N2C(C(=O)[O-])=C(CSc3nc(N)cc[n+]3CC)CS[C@H]12)c1csc(N)n1 [Example 14, 7-[(Z)-2-(2-aminothiazol-4-yl)-2-(ethoxyimino)acetamido]-3-(4-amino-1-ethylpyrimidinium-2-yl)thiomethyl-3-cephem-4-carboxylate] | 16 (≈ 28.3 µM) | 32 (≈ 56.7 µM) | 0.25 (≈ 0.443 µM) | 0.13 (≈ 0.23 µM) | 1 (≈ 1.77 µM) | 0.13 (≈ 0.23 µM) | 0.13 (≈ 0.23 µM) | 0.063 (≈ 0.112 µM) | 0.13 (≈ 0.23 µM) | 0.25 (≈ 0.443 µM) | 0.13 (≈ 0.23 µM) | 2 (≈ 3.54 µM) | 2 (≈ 3.54 µM) | 0.063 (≈ 0.112 µM) | 64 (≈ 113 µM) | 8 (≈ 14.2 µM) | 32 (≈ 56.7 µM) | 1 (≈ 1.77 µM) | 1 (≈ 1.77 µM) | 0.25 (≈ 0.443 µM) | MIC [21]: 0.25 µg/mL (≈ 0.443 µM); MIC [22]: 0.25 µg/mL (≈ 0.443 µM); MIC [23]: 0.5 µg/mL (≈ 0.885 µM); MIC [24]: 0.25 µg/mL (≈ 0.443 µM); MIC [25]: > 128 µg/mL
CCO/N=C(\C(=O)N[C@@H]1C(=O)N2C(C(=O)[O-])=C(CSc3nc(N)cc[n+]3C)CS[C@H]12)c1nsc(N)n1 [Example 6, 7-[(Z)-2-(5-amino-1,2,4-thiadiazol-3-yl)-2-(ethoxyimino)acetamido]-3-(4-amino-1-methylpyrimidinium-2-yl)thiomethyl-3-cephem-4-carboxylate] | 1 (≈ 1.81 µM) | 16 (≈ 29 µM) | 0.063 (≈ 0.114 µM) | 0.063 (≈ 0.114 µM) | 0.016 (≈ 0.029 µM) | 0.063 (≈ 0.114 µM) | 0.063 (≈ 0.114 µM) | 0.063 (≈ 0.114 µM) | ≤ 0.008 | 0.063 (≈ 0.114 µM) | ≤ 0.008 | 0.5 (≈ 0.906 µM) | 0.5 (≈ 0.906 µM) | ≤ 0.008 | 4 (≈ 7.25 µM) | 0.5 (≈ 0.906 µM) | 2 (≈ 3.63 µM) | 0.5 (≈ 0.906 µM) | 0.5 (≈ 0.906 µM) | 0.063 (≈ 0.114 µM) | MIC [21]: 0.25 µg/mL (≈ 0.453 µM); MIC [22]: 0.13 µg/mL (≈ 0.236 µM); MIC [23]: 0.13 µg/mL (≈ 0.236 µM); MIC [24]: 0.13 µg/mL (≈ 0.236 µM); MIC [25]: 32 µg/mL (≈ 58 µM)
CO/N=C(\C(=O)N[C@@H]1C(=O)N2C(C(=O)[O-])=C(CSc3nc(N)cc[n+]3C)CS[C@H]12)c1csc(N)n1 [Example 8, 7-[(Z)-2-(2-aminothiazol-4-yl)-2-(methoxyimino)acetamido]-3-(4-amino-1-methylpyrimidinium-2-yl)thiomethyl-3-cephem-4-carboxylate] | 8 (≈ 14.9 µM) | 64 (≈ 119 µM) | 0.13 (≈ 0.242 µM) | 0.063 (≈ 0.117 µM) | ≤ 0.008 | ≤ 0.008 | 0.063 (≈ 0.117 µM) | 0.063 (≈ 0.117 µM) | 0.016 (≈ 0.0298 µM) | 0.13 (≈ 0.242 µM) | ≤ 0.008 | 0.25 (≈ 0.466 µM) | 0.25 (≈ 0.466 µM) | ≤ 0.008 | 64 (≈ 119 µM) | 8 (≈ 14.9 µM) | 64 (≈ 119 µM) | 0.25 (≈ 0.466 µM) | 0.25 (≈ 0.466 µM) | 0.063 (≈ 0.117 µM) | MIC [21]: 0.13 µg/mL (≈ 0.242 µM); MIC [22]: 0.25 µg/mL (≈ 0.466 µM); MIC [23]: 0.5 µg/mL (≈ 0.932 µM); MIC [24]: 0.13 µg/mL (≈ 0.242 µM); MIC [25]: 64 µg/mL (≈ 119 µM)
